Experimental data taken from ChEMBL document CHEMBL1141486, “Synthesis and biological evaluation of novel 1,3,5-triazine derivatives as antimicrobial agents” (Bioorg Med Chem Lett, 2008).
Active and inactive are the calls of the source. No cut-off for these calls is given here.

Tests used:
[1] = Effect on disruption of membrane integrity using […]-2-oleoyl-sn-glycero-3-[phospho-rac-(1-glycerol)] lipid vesicle at 70 uM by calcein dye leakage assay; type: functional
Bacillus subtilis = test: Antibacterial activity against Bacillus subtilis […] by microdilution method; type: functional, organism-based
Staphylococcus aureus = test: Antibacterial activity against multi-drug resistant Staphylococcus aureus ATCC BAA44 by microdilution method; type: functional, organism-based
Bacillus anthracis = test: Antibacterial activity against Bacillus anthracis by microdilution method; type: functional, organism-based
[2] = Hemolytic activity in red blood cells at 100 uM; type: ADME, cell-based, Erythrocyte; conditions: read-out: Activity
[3] = Hemolytic activity in red blood cells; type: ADME, cell-based, Erythrocyte; conditions: read-out: HD50 (the source's name)
Escherichia coli = test: Antibacterial activity against ampicillin and streptomycin-resistant Escherichia coli D31 by microdilution method; type: functional, organism-based
Acinetobacter baumannii = test: Antibacterial activity against Acinetobacter baumannii ATCC BAA747 by microdilution method; type: functional, organism-based
[4] = Effect on disruption of membrane integrity using […]-2-oleoyl-sn-glycero-3-[phospho-rac-(1-glycerol)] lipid vesicle at 90 uM by calcein dye leakage assay; type: functional
[5] = Effect on disruption of membrane integrity using […]-2-oleoyl-sn-glycero-3-[phospho-rac-(1-glycerol)] lipid vesicle at 50 uM by calcein dye leakage assay; type: functional

Structure (SMILES): CC1(C)S[C@@H]2[C@H](NC(=O)[C@H](N)c3ccccc3)C(=O)N2[C@H]1C(=O)O
- Activity [1]: inactive

Structure (SMILES): CCCCN(CCCC)CCCNc1nc(NC23CC4CC(CC(C4)C2)C3)nc(N(CCC)CC2CC2)n1
- IC50 (Bacillus subtilis): 5 µM

Structure (SMILES): CN(C)CCNc1nc(NC2CCCCCC2)nc(NC23CC4CC(CC(C4)C2)C3)n1
- IC50 (Bacillus subtilis): 7 µM

Structure (SMILES): CCCCN(CCCC)CCCNc1nc(NC2CCCCCC2)nc(NC23CC4CC(CC(C4)C2)C3)n1
- IC50 (Staphylococcus aureus): 68 µM
- IC50 (Bacillus anthracis): 41 µM
- hemolysis at 100 µM [2]: < 10%
- HC50 [3]: > 3.5 mM
- IC50 (Escherichia coli): 620 µM
- IC50 (Acinetobacter baumannii): 53 µM
- IC50 (Bacillus subtilis): 2.5 µM

Structure (SMILES): CCN(CC)CCCNc1nc(NCc2ccc3c(c2)OCO3)nc(NC23CC4CC(CC(C4)C2)C3)n1
- IC50 (Bacillus subtilis): 3.5 µM

Structure (SMILES): CCCCN(CCCC)CCCNc1nc(NCCCN2CCCC(C)C2)nc(NC23CC4CC(CC(C4)C2)C3)n1 (centres undefined)
- hemolysis at 100 µM [2]: < 10%

Structure (SMILES): NCCCNc1nc(NC2CCCCCC2)nc(NC23CC4CC(CC(C4)C2)C3)n1
- IC50 (Bacillus subtilis): 4.7 µM

Structure (SMILES): CCN(CC)CCNc1nc(NC2CCCCCC2)nc(NC23CC4CC(CC(C4)C2)C3)n1
- IC50 (Bacillus subtilis): 5.6 µM

Structure (SMILES): CCCCN(CCCC)CCCNc1nc(NC2CCCCC2)nc(NC23CC4CC(CC(C4)C2)C3)n1
- hemolysis at 100 µM [2]: < 10%

Structure (SMILES): CCCCN(CCCC)CCCNc1nc(NCCc2ccc(OC)cc2)nc(NC23CC4CC(CC(C4)C2)C3)n1
- hemolysis at 100 µM [2]: < 10%

Structure (SMILES): CN(C)c1nc(NC2CCCCCC2)nc(NC23CC4CC(CC(C4)C2)C3)n1
- Activity [4]: inactive
- IC50 (Bacillus subtilis): > 40 µM

Structure (SMILES): NCCNc1nc(NC2CCCCCC2)nc(NC23CC4CC(CC(C4)C2)C3)n1
- IC50 (Bacillus subtilis): 5.9 µM

Structure (SMILES): CCCCN(CCCC)CCCNc1nc(NC2CCCCCCC2)nc(NC23CC4CC(CC(C4)C2)C3)n1
- IC50 (Staphylococcus aureus): 70 µM
- IC50 (Bacillus anthracis): 86 µM
- HC50 [3]: > 3.5 mM
- IC50 (Escherichia coli): 550 µM
- IC50 (Acinetobacter baumannii): 84 µM
- IC50 (Bacillus subtilis): 2 µM

Structure (SMILES): CN1CCCC1CCNc1nc(NC2CCCCCC2)nc(NC23CC4CC(CC(C4)C2)C3)n1 (centres undefined)
- IC50 (Bacillus subtilis): 5.9 µM

Structure (SMILES): CCCCN(CCCC)CCCNc1nc(NC2CCCC2)nc(NC23CC4CC(CC(C4)C2)C3)n1
- IC50 (Bacillus subtilis): 4.6 µM

Structure (SMILES): CCCCN(CCCC)CCCNc1nc(NC23CC4CC(CC(C4)C2)C3)nc(NC23CC4CC(CC(C4)C2)C3)n1
- IC50 (Bacillus subtilis): 39 µM

Structure (SMILES): CCCCN(CCCC)CCCNc1nc(NCCCN(CCCC)CCCC)nc(NC23CC4CC(CC(C4)C2)C3)n1
- hemolysis at 100 µM [2]: < 10%

Structure (SMILES): CCCCN(CCCC)CCCNc1nc(NC2CCCCCCCCCCC2)nc(NC23CC4CC(CC(C4)C2)C3)n1
- IC50 (Bacillus subtilis): 15.9 µM

Structure (SMILES): CCCCN(CCCC)CCCNc1nc(NCCCN(CC)CC)nc(NC23CC4CC(CC(C4)C2)C3)n1
- hemolysis at 100 µM [2]: < 10%

Structure (SMILES): CCN(CC)CCCNc1nc(NCCc2ccccc2)nc(NC23CC4CC(CC(C4)C2)C3)n1
- IC50 (Staphylococcus aureus): 17 µM
- IC50 (Bacillus anthracis): 21 µM
- HC50 [3]: > 3.5 mM
- Activity [5]: 100%
- IC50 (Escherichia coli): 200 µM
- IC50 (Acinetobacter baumannii): 22 µM
- IC50 (Bacillus subtilis): 2.7 µM

Structure (SMILES): CCCCN(CCCC)CCCNc1nc(NC2CC2)nc(NC23CC4CC(CC(C4)C2)C3)n1
- IC50 (Bacillus subtilis): 16.4 µM

Structure (SMILES): CCCCN(CCCC)CCCNc1nc(NC2CCC2)nc(NC23CC4CC(CC(C4)C2)C3)n1
- IC50 (Bacillus subtilis): 7.9 µM

Structure (SMILES): CCCCN(CCCC)CCCNc1nc(NCC2CCCCC2)nc(NC23CC4CC(CC(C4)C2)C3)n1
- IC50 (Bacillus subtilis): 5.5 µM

Structure (SMILES): CCN(CC)CCCNc1nc(NCCc2ccc(OC)cc2)nc(NC23CC4CC(CC(C4)C2)C3)n1
- hemolysis at 100 µM [2]: < 10%

Structure (SMILES): C[N+](C)(C)CCNc1nc(NC2CCCCCC2)nc(NC23CC4CC(CC(C4)C2)C3)n1
- IC50 (Bacillus subtilis): 5.3 µM

Structure (SMILES): CCN(CC)CCCNc1nc(NC2CCCCCC2)nc(NC23CC4CC(CC(C4)C2)C3)n1
- hemolysis at 100 µM [2]: < 10%

Structure (SMILES): CCN(CC)CCCNc1nc(NCCCc2ccccc2)nc(NC23CC4CC(CC(C4)C2)C3)n1
- IC50 (Bacillus subtilis): 3.7 µM

Structure (SMILES): CCCCN(CCCC)CCCNc1nc(NC2CC3CCC2C3)nc(NC23CC4CC(CC(C4)C2)C3)n1 (centres undefined)
- IC50 (Bacillus subtilis): 7.6 µM

Structure (SMILES): CN(C)CCCNc1nc(NC2CCCCCC2)nc(NC23CC4CC(CC(C4)C2)C3)n1
- IC50 (Bacillus subtilis): 5.7 µM

Structure (SMILES): CCN(CC)CCCNc1nc(NCc2ccccc2)nc(NC23CC4CC(CC(C4)C2)C3)n1
- IC50 (Bacillus subtilis): 10.6 µM

Structure (SMILES): CCCCN(CCCC)CCCNc1nc(NC23CC4CC(CC(C4)C2)C3)nc(N(CCCC)CCCC)n1
- IC50 (Bacillus subtilis): 4.4 µM
